Test results taken from patent US20240117431A1, “STEM-CELL BASED BIOMARKER DISCOVERY” (THE REGENTS OF THE UNIVERSITY OF CALIFORNIA, priority 2020, published 2024).

Key:
HEK cells = assay: Trypan blue cell viability / proliferation; format: cell-based; conditions: triple mutant TgUPRT + 5VU 200 μM, 5, 16, 24h, versus untreated cells, FIG. 11
Procedure: Equal amount HEK cells (2×10^5) were seeded in a 6-well plate with 2 mL media. Twenty-four hour […], HEK cells were transfected with 1 μg empty plasmid (No GFP nor TgUPRT), double (2×MT) or triple (3×MT) TgUPRT mutants. 5VU was added to cells at 200 μM final concentration for 5, 16 and 24h treatment so that by the time cells were assayed with Trypan blue, they underwent 48h post transfection. DMSO (carrier) treatment (negative control) was done for 24h. Cells were stained with 0.04% Trypan blue for 5 minutes and subjected to cell counting using Countess II FL (Invitrogen, USA). Per condition, counting was done with n=2× biological and 3× technical replicates.

TgUPRT (wild type) = biological target: T1, TgUPRT (wild type) (Toxoplasma gondii, UniProt Q26998); assay: Specific activity of TgUPRT variants with uracil analog substrates in vitro (phosphoribosyltransferase, HPLC); format: biochemical; conditions: 0.5 μg enzyme in 80 μL, 37° C., 2-5 min, substrates 1 mM, PBS pH 7.4; DMSO none (Uracil, 5-BrVUra), 1.6% (5-EtUra, 5-AU, 5AMU), 3.2% (5-VUra)
T1 construct: made in house; host or cells: E. coli BL21(DE3)
T1 sequence (Q26998 whole entry): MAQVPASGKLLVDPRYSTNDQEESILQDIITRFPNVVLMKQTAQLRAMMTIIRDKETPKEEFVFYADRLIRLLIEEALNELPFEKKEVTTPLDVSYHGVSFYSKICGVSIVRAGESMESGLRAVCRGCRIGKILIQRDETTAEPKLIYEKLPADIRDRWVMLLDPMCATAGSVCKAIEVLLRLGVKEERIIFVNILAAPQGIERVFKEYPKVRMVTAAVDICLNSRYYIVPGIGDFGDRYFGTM
Procedure: Enzyme activity assay: The standard activity assay was performed by incubating 10 μL of free extract or 0.5 μg of pure His-tag enzyme with 1 mM Phosphoribosyl pyrophosphate (PRPP), 1 mM uracil, 5 mM MgCl2 in 50 mM PBS buffer pH 7.4 in a final volume of 80 μL. The reaction mixture was incubated at 37° C. for 2-5 min (300 rpm). Enzyme was inactivated by adding 80 μL of cold methanol in ice-bath and heating for 5 min at 100° C. After centrifugation at 9000×g for 5 min, samples were half-diluted with water and the NMP production was analysed by HPLC to quantitatively measure the reaction products as described below in the analytical methods. All determinations were carried out in triplicate assuming Michaelis-Menten conditions, and the maximum error was below 5%. […]
Substrate specificity studies Enzymatic synthesis of the different pyrimidine nucleoside monophosphate (NMP) derivatives was carried out by incubating 0.5 μg of pure His-tag enzyme with 1 mM PRPP, 1 mM pyrimidine base and 5 mM MgCl2 in 50 mM PBS buffer pH 7.4 (1.6-3.2% v/v DSMO). […] Subsequently, the reaction mixture was processed as described above and the NMP production was analyzed by HPLC.
Analytical methods: The production of NMPs was quantitatively measured with an ACE EXCEL 5 μm CN-ES 250×4.6 mm equilibrated with 100% trimethyl ammonium acetate at a flow rate of 0.8 mL/min. […]

[1] = tested on: 3×MT-TgUPRT transfected HEK293 cells; assay: RNA fluorescence imaging via IEDDA (confocal microscopy); format: cell-based, Toxoplasma gondii; conditions: 1 mM, 24 hours, tetrazene biotin + fluorophore-streptavidin, FIG. 10A
Procedure: RNA fluorescence imaging via IEDDA: The cell culture dishes and glass coverslips were coated with poly-D-lysine (10 μg/ml) for 24 h at 37° C. and washed three times with autoclaved water to remove the excessive amount of poly-D lysine. HEK293 cells were seeded on glass coverslips at 2.5×105 in a 6-well plate. Twenty-four hours post-seeding, cells were transiently transfected with 1 μg WT- or MT-TgUPRT using jetPRIME transfection reagent according to the manufacturers manual (Polyplus Transfection, France). Twenty-four hours post-transfection, cells were treated with DMSO or 1 mM 5VU for 24 hours. After labeling, cells were washed 3× with DPBS, fixed and permeabilized for 30 min at room temperature with 3.7% paraformaldehyde and 0.15% Triton-X100. Cells were then washed three times (7 min/each) on orbital shaker with DPBS, blocked with Streptavidin (2 mg/mL in DPBS) for 30 minutes and followed with BSA (1 mg/ml in DPBS, 0.45% NaCl and 0.025% NaN3) for 30 min at room temperature, washed 2× with DPBS. Blocked cells were incubated with 200-500 μL of 1 mM biotin-tetrazine solution in water for 3 hours at 37° C. […] Slides were imaged via fluorescence confocal microscopy using a 63× oil immersion objective on a […] Carl Zeiss microscope. […]

Row | Compound | cell viability, Trypan blue (HEK cells) | Specific Activity, TgUPRT (TgUPRT (wild type)) | fluorescent signal of labeled RNA [1]
1 | C=Cc1c[nH]c(=O)[nH]c1=O [compound 2, 5-Vinylpyrimidine-2,4(1H,3H)-dione] | non-significant differences to untreated cells | undetectable activity | fluorescent signal was observed only in the presence of both 2 and 3×MT-TgUPRT transfected cells
2 | C#Cc1c[nH]c(=O)[nH]c1=O [compound 1, 5-ethynylpyrimidine-2,4(1H,3H)-dione] |  | reactive | 
